Data published in US20060058312A1, “Stabilized aqueous preparation for injection” (priority 2004, published 2006).
Where two headings read alike, the source gives them in different places.

Key:
[1] = Stability test at 60° C., addition amount of ascorbic acid at pH 8.1 (Example 4), HPLC content; assay type: physicochemical; conditions: for remaining calcium levofolinate content compared with the initial value (100): 60° C.
Procedure: (§1) For the aqueous preparations obtained in (1) to (3) above, tests evaluating stability at 60° C./3 weeks were performed. The calcium levofolinate content remaining in the aqueous solution was measured using high performance liquid chromatography under the following conditions (the same were employed in the following experiments) 2 ml each of the test preparations were weighed, and 10 ml of the internal standard solution described below (the same was employed in the following experiments) were added thereto. Subsequently, water was added to adjust the total volume of the solution to 50 ml, thereby to prepare a test solution. Meanwhile, 62.5 mg of calcium levofolinate were dissolved in water so as to prepare a 25 ml solution. Then, to 10 ml of the resultant solution were added 10 ml of the internal standard solution, and the total volume of the solution was adjusted to 50 ml by adding water, thereby to prepare a standard solution. For 20 μl of the standard solution and the test solution, the content of calcium levofolinate was measured by the liquid chromatography method under the following conditions.
(§2) 1) Measurement Conditions • Detector: Ultraviolet absorptiometer (Measurement wavelength: 254 nm) • Column: A stainless tube having an internal diameter of 4.0 mm and a length of 15 cm was filled with 5 μm of octadecylsilylated silica gel for liquid chromatography. • Column temperature: A constant temperature near 45° C. • Mobile phase: The pH value of a mixed test solution containing 0.008 mol/L of disodium hydrogen phosphate solution/methanol/40% aqueous tetrabutylammonium hydroxide solution (385:110:1.3 (volume ratio)) was adjusted to 7.5 by adding phosphoric acid. • Flow rate: The flow rate was regulated so that the retention time of calcium levofolinate became about 10 minutes. • Internal standard solution: A solution prepared by adding water to 0.04 g of methyl parahydroxybenzoate so that the whole amount of solution is 100 ml.
About 80 ml of water for injection were added to a beaker (volume: 200 ml). Then 0.56 g of sodium chloride, 0.3 g of tromethamine, and 1.375 g of calcium levofolinate (1.1 g, in terms of 5-formyl-(6S)-tetrahydrofolic acid) were added to it with bubbling of nitrogen gas, and the components were dissolved with stirring (this procedure was performed […]). Subsequently, 0 (no addition), 0.05 g, 0.1 g, 0.3 g, 0.5 g or 1.0 g of ascorbic acid was added to each solution, and was dissolved with stirring, to prepare six solutions. Thereafter, in the case where the addition amount of ascorbic acid is 0 (no addition), 0.05 g, or 0.1 g, the pH value of each solution was adjusted to 8.1 by adding 5% hydrochloric acid dropwise. In the case where the addition amount of ascorbic acid is 0.3 g, 0.5 g, or 1.0 g, the pH value of each solution was adjusted to 8.1 by adding 1% aqueous sodium hydroxide solution dropwise. Water for injection was further added to each solution to adjust the total volume of the solution to 100 ml. Subsequently, the bubbling of nitrogen gas was stopped, and each solution was filtered with a filtration filter, thereby to yield a solution for injection. Subsequently, each of five 5 ml-glass ampules the inside space of which had been substituted by nitrogen gas, was filled with 5 ml of the resultant solution for injection, and it was sealed by heating.
For each aqueous preparation obtained as above, a test evaluating stability at 60° C. was performed by measuring the remaining calcium levofolinate content by the high performance liquid chromatography method.

[2] = assay type: physicochemical; conditions: buffer, 13 mg/mL, pH 6.2
Procedure: as §1, §2
About 1100 ml of water for injection were added to a beaker. Then, 8.04 g of sodium chloride, 3.6 g of tromethamine, and 1.2 g of ascorbic acid were added thereto with bubbling of nitrogen gas, and the components were dissolved with stirring. To the resultant solution were added 15.62 g of calcium levofolinate, which was dissolved with stirring. Thereafter, the pH value of the solution was adjusted to 6.2 by adding 5% hydrochloric acid solution dropwise. Water for injection was further added to the solution to adjust the total volume to 1200 ml. Subsequently, the bubbling of nitrogen gas was stopped, and the solution was filtered with a filtration filter, thereby to yield a solution for injection. A 5 ml-syringe made of polypropylene, the inside space of which had been substituted by nitrogen gas, was filled with 5 ml of the resultant solution for injection, followed by steam sterilization under high pressure at 105° C. for 30 minutes. The thus-sterilized syringe was packaged together with a deoxidant, AGELESS ZP-50 (trade name, Mitsubishi Gas Chemical Company, Inc. Japan) by using a plastic film with high air impermeability.
For an aqueous preparation as obtained above, a stability test (60° C./75% RH, and 40° C./75% RH) was performed by measuring the content of calcium levofolinate remaining after storage for a certain period by the high performance liquid chromatography method.

[3] = Transmittance and coloring of the aqueous solution during storage; assay type: physicochemical; conditions: aqueous solution
Source text: The suppressing effect can be attained by the action of ascorbic acid which has been stabilized by sodium pyrosulfite.

Nc1nc(=O)c2c([nH]1)NC[C@H](CNc1ccc(C(=O)N[C@@H](CCC(=O)O)C(=O)O)cc1)N2C=O [calcium levofolinate, (6S)-N-[4-[[(2-amino-5-formyl-1,4,5,6,7,8-hexahydro-4-oxo-6-pteridinyl)methyl]amino]benzoyl]-L-glutamic acid]
remaining calcium levofolinate content compared with the initial value (100) ([1]; ascorbic acid 0% (No addition), 1 month): 79.7
remaining calcium levofolinate content compared with the initial value (100) ([1]; ascorbic acid 0% (No addition), 1 week): 94.1
remaining calcium levofolinate content compared with the initial value (100) ([1]; ascorbic acid 0% (No addition), 2 weeks): 88.7
remaining calcium levofolinate content compared with the initial value (100) ([1]; ascorbic acid 0% (No addition), 3 weeks): 86.0
calcium levofolinate content, Initial value (100) ([1]; ascorbic acid 0% (No addition)): 100
remaining calcium levofolinate content compared with the initial value (100) ([1]; ascorbic acid 0.05%, 1 month): 82.6
remaining calcium levofolinate content compared with the initial value (100) ([1]; ascorbic acid 0.05%, 1 week): 96.4
remaining calcium levofolinate content compared with the initial value (100) ([1]; ascorbic acid 0.05%, 2 weeks): 92.4
remaining calcium levofolinate content compared with the initial value (100) ([1]; ascorbic acid 0.05%, 3 weeks): 87.3
calcium levofolinate content, Initial value (100) ([1]; ascorbic acid 0.05%): 100
remaining calcium levofolinate content compared with the initial value (100) ([1]; ascorbic acid 0.1%, 1 month): 82.2
remaining calcium levofolinate content compared with the initial value (100) ([1]; ascorbic acid 0.1%, 1 week): 97.4
remaining calcium levofolinate content compared with the initial value (100) ([1]; ascorbic acid 0.1%, 2 weeks): 93.1
remaining calcium levofolinate content compared with the initial value (100) ([1]; ascorbic acid 0.1%, 3 weeks): 87.7
calcium levofolinate content, Initial value (100) ([1]; ascorbic acid 0.1%): 100
remaining calcium levofolinate content compared with the initial value (100) ([1]; ascorbic acid 0.3%, 1 month): 81.6
remaining calcium levofolinate content compared with the initial value (100) ([1]; ascorbic acid 0.3%, 1 week): 96.3
remaining calcium levofolinate content compared with the initial value (100) ([1]; ascorbic acid 0.3%, 2 weeks): 91.3
remaining calcium levofolinate content compared with the initial value (100) ([1]; ascorbic acid 0.3%, 3 weeks): 86.9
calcium levofolinate content, Initial value (100) ([1]; ascorbic acid 0.3%): 100
remaining calcium levofolinate content compared with the initial value (100) ([1]; ascorbic acid 0.5%, 1 month): 80.9
remaining calcium levofolinate content compared with the initial value (100) ([1]; ascorbic acid 0.5%, 1 week): 96.5
remaining calcium levofolinate content compared with the initial value (100) ([1]; ascorbic acid 0.5%, 2 weeks): 90.9
remaining calcium levofolinate content compared with the initial value (100) ([1]; ascorbic acid 0.5%, 3 weeks): 86.0
calcium levofolinate content, Initial value (100) ([1]; ascorbic acid 0.5%): 100
remaining calcium levofolinate content compared with the initial value (100) ([1]; ascorbic acid 1.0%, 1 month): 80.3
remaining calcium levofolinate content compared with the initial value (100) ([1]; ascorbic acid 1.0%, 1 week): 95.4
remaining calcium levofolinate content compared with the initial value (100) ([1]; ascorbic acid 1.0%, 2 weeks): 89.8
remaining calcium levofolinate content compared with the initial value (100) ([1]; ascorbic acid 1.0%, 3 weeks): 84.1
calcium levofolinate content, Initial value (100) ([1]; ascorbic acid 1.0%): 100
remaining ratio (%) of calcium levofolinate ([2]; 0 months): 100%
remaining ratio (%) of calcium levofolinate ([2]; 0 weeks): 100%
remaining ratio (%) of calcium levofolinate ([2]; 1 month): 99.8%
remaining ratio (%) of calcium levofolinate ([2]; 2 months): 98.8%
remaining ratio (%) of calcium levofolinate ([2]; 4 months): 96.6%
remaining ratio (%) of calcium levofolinate ([2]; 6 months): 91.8%
remaining ratio (%) of calcium levofolinate ([2]; 168 h): 96.6%
remaining ratio (%) of calcium levofolinate ([2]; 336 h): 96.2%
remaining ratio (%) of calcium levofolinate ([2]; 504 h): 95.3%
remaining ratio (%) of calcium levofolinate ([2]; 672 h): 94.4%
transmittance of the aqueous solution during storage [3]: lowers gradually
